In patent US10219516B2, “Molecules having pesticidal utility, and intermediates, compositions, and processes, related thereto” (priority 2015, dated 2019):
Where two headings read alike, the source gives them in different places.

What was measured:
Format in all cases: in vivo
[1] = test system: Cabbage Looper (Trichoplusia ni, TRIPNI); assay: Bioassay on Cabbage Looper (CL), 128-well diet tray assay; details: Trichoplusia ni
Method in brief: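 Using eight wells per molecule, artificial diet was dosed at 50 μg/cm^2 with compound in 90:10 acetone-water and dried before one to five second-instar larvae were added per well. Covered vented trays were kept at 25° C. with 14:10 light-dark for five to seven days, then per-well percent mortality was recorded and averaged.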

[2] = test system: Beet Armyworm (Spodoptera exigua, LAPHEG); assay: Bioassay on Beet Armyworm (BAW), 128-well diet tray assay
Method in brief: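 Percent mortality, averaged across eight replicate wells, was scored after five to seven days at 25° C. under a 14:10 light-dark cycle. Each well's diet carried 50 μg/cm^2 of the dried test molecule and held one to five second instar larvae.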

[3] = test system: Yellow Fever Mosquito (Aedes aegypti, AEDSAE); assay: Bioassay on Yellow Fever Mosquito (YFM), 96-well plate larval assay; details: for YFM rating: Yellow Fever Mosquito, 96-well plate larval assay; for YFM (Biological Results, rating): Species YFM (Yellow Fever Mosquito)
Method in brief: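 Compound stocks at 4000 ppm in DMSO were diluted with 90:10 water/acetone, and 15 μL aliquots were dispensed into six replicate plates. About 1-day-old larvae in liver-powder water were added per well. Plates were covered and held at room temperature for 3 days before each well was scored for mortality.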

[4] = Cabbage Looper, 128-well diet tray assay, read-out: CL rating
[5] = Beet Armyworm, 128-well diet tray assay, read-out: BAW rating
[6] = Species CL (Cabbage Looper), read-out: CL (Biological Results, rating)
[7] = Species BAW (Beet Armyworm), read-out: BAW (Biological Results, rating)

Structure (SMILES) | pest or weed control at 50 µg/cm2 [1, 4] [%] | pest or weed control at 50 µg/cm2 [2, 5] [%] | YFM rating [3] | pest or weed control at 50 µg/cm2 [1, 6] [%] | pest or weed control at 50 µg/cm2 [2, 7] [%] | YFM (Biological Results, rating) [3]
O=C(Nc1nnn[nH]1)c1cc(NC(=O)[C@H]2[C@H](c3cc(Cl)cc(Cl)c3)C2(Cl)Cl)ccc1Cl (relative stereo) [PF130, trans-2-Chloro-5-(2,2-dichloro-3-(3,5-dichlorophenyl)cyclopropane-1-carboxamido)-N-(1H-tetrazol-5-yl)benzamide] | 50 to 100 | 50 to 100 | B (More than 0-Less than 80) | – | – | –
C=C(F)c1ccc(NC(=O)c2cc(NC(=O)[C@H]3[C@H](c4cc(Cl)cc(Cl)c4)C3(Cl)Cl)ccc2Cl)nc1F (relative stereo) [F398, 2-chloro-5-(trans-2,2-dichloro-3-(3,5-dichlorophenyl)cyclopropane-1-carboxamido)-N-(6-fluoro-5-(1-fluorovinyl)pyridin-2-yl)benzamide] | 50 to 100 | 50 to 100 | A (80-100) | – | – | –
COc1ccc(NC(=O)c2cc(NC(=O)[C@H]3[C@H](c4cc(Cl)cc(Cl)c4)C3(Cl)Cl)ccc2Cl)c(Cl)n1 (relative stereo) [F552, 2-Chloro-N-(2-chloro-6-methoxypyridin-3-yl)-5-(trans-2,2-dichloro-3-(3,5-dichlorophenyl)cyclopropane-1-carboxamido)benzamide] | 50 to 100 | 50 to 100 | A (80-100) | – | – | –
CNc1ccc(NC(=O)c2cc(NC(=O)[C@H]3[C@H](c4cc(Cl)cc(Cl)c4)C3(Cl)Cl)ccc2Cl)c(C#N)c1 (relative stereo) [F237, trans-2-chloro-N-(2-cyano-4-(methylamino)phenyl)-5-(2,2-dichloro-3-(3,5-dichlorophenyl)cyclopropane-1-carboxamido)benzamide] | – | – | – | 50 to 100 | 50 to 100 | A (80-100)
O=C(Nc1ccc2c(c1)CCN2)c1cc(NC(=O)[C@H]2[C@H](c3cc(Cl)cc(Cl)c3)C2(Cl)Cl)ccc1Cl (relative stereo) [F511, 2-Chloro-5-(trans)-(2,2-dichloro-3-(3,5-dichlorophenyl)cyclopropane-1-carboxamido)-N-(indolin-5-yl)benzamide] | 50 to 100 | 50 to 100 | A (80-100) | – | – | –
O=C(Nc1ccc(Cl)cn1)c1cc(NC(=O)[C@H]2[C@H](c3cc(Cl)cc(Cl)c3)C2(Cl)Cl)ccc1Cl (relative stereo) [PF141, trans-2-Chloro-N-(5-chloropyridin-2-yl)-5-(2,2-dichloro-3-(3,5-dichlorophenyl)cyclopropane-1-carboxamido)benzamide] | 50 to 100 | 50 to 100 | B (More than 0-Less than 80) | – | – | –
CN(C(=O)c1cc(NC(=O)[C@H]2[C@H](c3ccc(F)c(C(F)F)c3)C2(Cl)Cl)ccc1Cl)c1ccc(F)cc1 (relative stereo) [F595, 2-Chloro-5-(trans-2,2-dichloro-3-(3-(difluoromethyl)-4-fluorophenyl)cyclopropane-1-carboxamido)-N-(4-fluorophenyl)-N-methylbenzamide] | 50 to 100 | 50 to 100 | A (80-100) | – | – | –
O=C(Nc1ccc(F)cc1F)c1cc(NC(=O)[C@H]2[C@H](c3ccc(F)c(C(F)(F)F)c3)C2(Cl)Cl)ccc1Cl (relative stereo) [F376, 2-Chloro-5-(trans)-(2,2-dichloro-3-(4-fluoro-3-(trifluoromethyl)phenyl)cyclopropane-1-carboxamido)-N-(2,4-difluorophenyl)benzamide] | 50 to 100 | 50 to 100 | A (80-100) | – | – | –
Cc1cc(F)ccc1N(C)C(=O)c1cc(NC(=O)[C@H]2[C@H](c3cc(Cl)cc(Cl)c3)C2(Cl)Cl)ccc1Cl (relative stereo) [PF49, trans-2-Chloro-5-(2,2-dichloro-3-(3,5-dichlorophenyl)cyclopropane-1-carboxamido)-N-(4-fluoro-2-methylphenyl)-N-methylbenzamide] | 50 to 100 | 50 to 100 | B (More than 0-Less than 80) | – | – | –
N#Cc1cc(Cl)cc([C@H]2[C@H](C(=O)Nc3ccc(Cl)c(C(=O)Nc4ccc(F)c(N)c4F)c3)C2(Cl)Cl)c1 (relative stereo) [F344, trans-N-(3-Amino-2,4-difluorophenyl)-2-chloro-5-(2,2-dichloro-3-(3-chloro-5-cyanophenyl)cyclopropane-1-carboxamido)benzamide] | – | – | – | 50 to 100 | 50 to 100 | A (80-100)
C[C@]1(c2ccc(OC(F)(F)F)cc2)[C@H](C(=O)Nc2ccc(Cl)c(C(=O)Nc3ccc(F)cc3)c2)C1(Cl)Cl (relative stereo) [PF32, trans-2-Chloro-5-(2,2-dichloro-3-methyl-3-(4-(trifluoromethoxy)phenyl)cyclopropanecarboxamido)-N-(4-fluorophenyl)benzamide] | 50 to 100 | 50 to 100 | A (80-100) | – | – | –
N#Cc1cc(Cl)cc(C2C(C(=O)Nc3ccc(Cl)c(C(=O)Nc4ccc(F)cc4F)c3)C2(Cl)Cl)c1 (stereo not drawn) [F188, 2-Chloro-5-(trans)-2,2-dichloro-3-(3-chloro-5-cyanophenyl)cyclopropane-1-carboxamido)-N-(2,4-difluorophenyl)benzamide] | – | – | – | 50 to 100 | 50 to 100 | B (More than 0-Less than 80)
O=C(Nc1ccccc1)c1cc(NC(=O)[C@H]2[C@H](c3cc(Cl)cc(Cl)c3)C2(Cl)Cl)cc(Cl)c1Cl (relative stereo) [F246, trans-2,3-Dichloro-5-(2,2-dichloro-3-(3,5-dichlorophenyl)cyclopropane-1-carboxamido)-N-phenylbenzamide] | – | – | – | 50 to 100 | 50 to 100 | A (80-100)
Cc1ccc(NC(=O)c2cc(NC(=O)C3C(c4cc(Cl)cc(Cl)c4)C3(Cl)Cl)ccc2Cl)cc1Cl (stereo not drawn) [PF125, 2-Chloro-N-(3-chloro-4-methylphenyl)-5-(trans)-2,2-dichloro-3-(3,5-dichlorophenyl)cyclopropane-1-carboxamido)benzamide] | 50 to 100 | 50 to 100 | A (80-100) | – | – | –
O=C(Nc1ccc(F)cc1)c1cc(NC(=O)[C@H]2[C@H](c3cc(Cl)cc(Cl)c3)C2(Cl)Cl)ccc1I (relative stereo) [F4, trans-5-(2,2-Dichloro-3-(3,5-dichlorophenyl)cyclopropane-1-carboxamido)-N-(4-fluorophenyl)-2-iodobenzamide] | – | – | – | 50 to 100 | 50 to 100 | A (80-100)
O=C(Nc1ncc(F)cc1F)c1cc(NC(=O)[C@H]2[C@H](c3cc(Cl)cc(Cl)c3)C2(Cl)Cl)ccc1Cl (relative stereo) [F241, trans-2-Chloro-5-(2,2-dichloro-3-(3,5-dichlorophenyl)cyclopropane-1-carboxamido)-N-(3,5-difluoropyridin-2-yl)benzamide] | – | – | – | 50 to 100 | 50 to 100 | A (80-100)
